Laboratory results reported in PubChem BioAssay AID248 (DTP/NCI, 2004).
Several values for one entry are separate records, joined by “and”; a condition that tells them apart may be missing. Equal entries are not always repeated. Inconclusive results and toxic doses are left out. Rule as the data show it: active = T/C of 150% or more; inactive = T/C below 125%.

Test system: L1210 leukemia ip in BDF1 mice, survival T/C
Assay: NCI In Vivo Anticancer Drug Screen. Data for tumor model L1210 Leukemia (intraperitoneal) in B6D2F1 (BDF1) mice
Settings: endpoint: mean survival time, higher = longer survival
Method in brief: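 Each compound was tested against a transplantable tumor grown in mice. The endpoint was survival, with treated animals benchmarked against vehicle controls as a simple ratio.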

[1] = dose: 25.0 mg/kg/injection, schedule: Q01DX009 (ip), vehicle: Klucel (hydroxypropylcellulose) (HPC)
[2] = dose: 50.0 mg/kg/injection, schedule: Q01DX009 (ip), vehicle: Klucel (hydroxypropylcellulose) (HPC)
[3] = dose: 100.0 mg/kg/injection, schedule: Q01DX001 (ip), vehicle: saline
[4] = dose: 100.0 mg/kg/injection, schedule: Q01DX009 (ip), vehicle: Klucel (hydroxypropylcellulose) (HPC)
[5] = dose: 200.0 mg/kg/injection, schedule: Q01DX001 (ip), vehicle: saline
[6] = dose: 400.0 mg/kg/injection, schedule: Q01DX001 (ip), vehicle: saline
[7] = dose: 100.0 mg/kg/injection, schedule: Q04DX003 (ip), vehicle: Klucel (hydroxypropylcellulose) (HPC)
[8] = dose: 200.0 mg/kg/injection, schedule: Q01DX009 (ip), vehicle: Klucel (hydroxypropylcellulose) (HPC)
[9] = dose: 200.0 mg/kg/injection, schedule: Q04DX003 (ip), vehicle: Klucel (hydroxypropylcellulose) (HPC)
[10] = dose: 400.0 mg/kg/injection, schedule: Q01DX009 (ip), vehicle: Klucel (hydroxypropylcellulose) (HPC)
[11] = dose: 400.0 mg/kg/injection, schedule: Q04DX003 (ip), vehicle: Klucel (hydroxypropylcellulose) (HPC)
[12] = dose: 100.0 mg/kg/injection, schedule: Q04DX003 (ip), vehicle: saline with Tween-80
[13] = dose: 200.0 mg/kg/injection, schedule: Q04DX003 (ip), vehicle: saline with Tween-80
[14] = dose: 400.0 mg/kg/injection, schedule: Q04DX003 (ip), vehicle: saline with Tween-80

Measured: T/C

CO[C@H]1/C=C/O[C@@]2(C)Oc3c(C)c(O)c4c(O)c(c(/C=N/N5CCN(C)CC5)c(O)c4c3C2=O)NC(=O)/C(C)=C\C=C\[C@H](C)[C@H](O)[C@@H](C)[C@@H](O)[C@@H](C)[C@H](OC(C)=O)[C@@H]1C
inactive: [1] 96 % of control | dose: 50.0 mg/kg/injection, schedule: Q01DX001 (ip), vehicle: water 97 % of control | [2] 94 % of control | [3] 97 % of control | dose: 100.0 mg/kg/injection, schedule: Q01DX001 (ip), vehicle: water 103 % of control | [4] 94 % of control | [5] 100 % of control | dose: 200.0 mg/kg/injection, schedule: Q01DX001 (ip), vehicle: water 100 % of control | [6] 97 % of control | dose: 400.0 mg/kg/injection, schedule: Q01DX001 (ip), vehicle: water 108 % of control | dose: 1200.0 mg/kg/injection, schedule: Q01DX001 (ip), vehicle: acetone 102 % of control

CCCC/C(=N\OC(=O)N(C)C)c1ccccc1
inactive: [3] 103 % of control | [5] 98 % of control | [6] 98 % of control

COc1cccc2c1C(=O)c1c(O)c3c(c(O)c1C2=O)C[C@@](O)(C(C)=O)C[C@@H]3OC1CC(NC(=S)Nc2ccc(F)cc2)C(O)C(C)O1 (stereo partly specified)
inactive: dose: 0.25 mg/kg/injection, schedule: Q04DX003 (ip), vehicle: other 100 % of control | dose: 0.5 mg/kg/injection, schedule: Q04DX003 (ip), vehicle: other 98 % of control | dose: 1.0 mg/kg/injection, schedule: Q04DX003 (ip), vehicle: other 104 % of control | dose: 2.0 mg/kg/injection, schedule: Q04DX003 (ip), vehicle: other 100 % of control | dose: 4.0 mg/kg/injection, schedule: Q04DX003 (ip), vehicle: other 112 % of control | dose: 6.0 mg/kg/injection, schedule: Q01DX009 (ip), vehicle: water 111 % of control | dose: 8.0 mg/kg/injection, schedule: Q04DX003 (ip), vehicle: other 112 % of control | dose: 12.0 mg/kg/injection, schedule: Q01DX009 (ip), vehicle: water 114 % of control | dose: 14.0 mg/kg/injection, schedule: Q04DX003 (ip), vehicle: water 108 % of control | dose: 16.0 mg/kg/injection, schedule: Q04DX003 (ip), vehicle: other 109 % of control | dose: 21.0 mg/kg/injection, schedule: Q04DX003 (ip), vehicle: water 108 % of control | dose: 23.0 mg/kg/injection, schedule: Q01DX009 (ip), vehicle: water 108 % of control | dose: 24.0 mg/kg/injection, schedule: Q01DX009 (ip), vehicle: water 116 % of control | dose: 39.0 mg/kg/injection, schedule: Q01DX009 (ip), vehicle: water 109 % of control | dose: 48.0 mg/kg/injection, schedule: Q01DX009 (ip), vehicle: water 122 % of control | dose: 50.0 mg/kg/injection, schedule: Q04DX003 (ip), vehicle: water 120 % of control | dose: 65.0 mg/kg/injection, schedule: Q01DX009 (ip), vehicle: water 109 % of control | dose: 108.0 mg/kg/injection, schedule: Q01DX009 (ip), vehicle: water 119 % of control | dose: 180.0 mg/kg/injection, schedule: Q01DX009 (ip), vehicle: water 104 % of control

Cc1cc(C)n(C(N)=O)n1
inactive: [4] 109 % of control | [7] 105 % of control and 104 % of control | [8] 104 % of control | [9] 97 % of control and 102 % of control | [10] 110 % of control | [11] 101 % of control and 104 % of control

CCCCOc1ccc(C(=O)N/N=C\c2cc(OC)c(OC)c(OC)c2)cc1
inactive: [7] 94 % of control | [9] 94 % of control | [11] 91 % of control

O=[N+]([O-])c1ccc(C=C2C=c3ccccc3=C2)cc1
inactive: dose: 12.5 mg/kg/injection, schedule: Q04DX003 (ip), vehicle: Klucel (hydroxypropylcellulose) (HPC) 94 % of control | dose: 25.0 mg/kg/injection, schedule: Q04DX003 (ip), vehicle: Klucel (hydroxypropylcellulose) (HPC) 96 % of control | dose: 50.0 mg/kg/injection, schedule: Q04DX003 (ip), vehicle: Klucel (hydroxypropylcellulose) (HPC) 97 % of control

COc1cc(C=C(C(C)=O)C(C)=O)ccc1O
inactive: [12] 112 % of control | [13] 109 % of control

Cc1cc(C)cc(C(C)C)c1
inactive: [12] 96 % of control | [13] 96 % of control | [14] 93 % of control

O=C(Cc1cccc2ccccc12)NO
inactive: [4] 95 % of control | [7] 95 % of control | [8] 102 % of control | [9] 95 % of control | [10] 101 % of control | [11] 104 % of control

N=c1c2ncn(Cc3cccc(C(F)(F)F)c3)c2ncn1O
inactive: dose: 0.78 mg/kg/injection, schedule: Q01DX009 (ip), vehicle: Klucel (hydroxypropylcellulose) (HPC) 104 % of control | dose: 1.56 mg/kg/injection, schedule: Q01DX009 (ip), vehicle: Klucel (hydroxypropylcellulose) (HPC) 92 % of control | dose: 1.56 mg/kg/injection, schedule: Q04DX003 (ip), vehicle: Klucel (hydroxypropylcellulose) (HPC) 92 % of control | dose: 3.12 mg/kg/injection, schedule: Q01DX009 (ip), vehicle: Klucel (hydroxypropylcellulose) (HPC) 95 % of control | dose: 3.12 mg/kg/injection, schedule: Q04DX003 (ip), vehicle: Klucel (hydroxypropylcellulose) (HPC) 102 % of control

CC(=O)C(O)N1C(=O)C=CC1=O (stereo unspecified)
inactive: dose: 1.25 mg/kg/injection, schedule: Q01DX009 (ip), vehicle: saline 103 % of control | dose: 1.25 mg/kg/injection, schedule: Q#A X018 (ip), vehicle: saline 103 % of control | dose: 2.5 mg/kg/injection, schedule: Q01DX009 (ip), vehicle: saline 100 % of control | dose: 2.5 mg/kg/injection, schedule: Q04DX003 (ip), vehicle: water 104 % of control | dose: 2.5 mg/kg/injection, schedule: Q## X006 (ip), vehicle: water 104 % of control | dose: 2.5 mg/kg/injection, schedule: Q#A X018 (ip), vehicle: saline 102 % of control | dose: 5.0 mg/kg/injection, schedule: Q01DX009 (ip), vehicle: saline 91 % of control | dose: 5.0 mg/kg/injection, schedule: Q04DX003 (ip), vehicle: water 102 % of control | dose: 5.0 mg/kg/injection, schedule: Q## X006 (ip), vehicle: water 102 % of control | dose: 5.0 mg/kg/injection, schedule: Q#A X018 (ip), vehicle: saline 100 % of control | dose: 10.0 mg/kg/injection, schedule: Q## X006 (ip), vehicle: water 104 % of control | dose: 10.0 mg/kg/injection, schedule: Q#A X018 (ip), vehicle: saline 100 % of control

CCCCCN(CCCCC)CC(O)c1cc2c(c3ccccc13)CCCC2 (stereo unspecified)
inactive: [1] 87 % of control | [2] 93 % of control | [4] 90 % of control

CCCCCCCCCCCC(C)(O)CC (stereo unspecified)
inactive: [12] 95 % of control | [13] 95 % of control | [14] 101 % of control

O=c1nc2n(CCO)c3ccccc3nc-2c(=O)[nH]1
inactive: dose: 25.0 mg/kg/injection, schedule: Q04DX002 (ip), vehicle: saline 100 % of control | dose: 50.0 mg/kg/injection, schedule: Q04DX002 (ip), vehicle: saline 106 % of control | dose: 100.0 mg/kg/injection, schedule: Q04DX002 (ip), vehicle: saline 95 % of control

Cc1nnc(NS(=O)(=O)c2ccc(N=Nc3c(N)nc(N)[nH]c3=O)cc2)s1
inactive: dose: 5.0 mg/kg/injection, schedule: Q01DX001 (ip), vehicle: saline 105 % of control | dose: 10.0 mg/kg/injection, schedule: Q01DX001 (ip), vehicle: saline 102 % of control | dose: 20.0 mg/kg/injection, schedule: Q01DX001 (ip), vehicle: saline 98 % of control | dose: 40.0 mg/kg/injection, schedule: Q01DX001 (ip), vehicle: saline 102 % of control
